The values that follow come from patent US20070213370A1, “5-HTP Combination Therapy” (H. Lundbeck A/S, priority 2005, published 2007).

Where two headings read alike, the source gives them in different places.

In one series the test system is BALB/cByJ mice. In words: Mouse marble burying behavior. In kind it is in vivo. From the text:
Male BALB/cByJ mice (Jackson labs, Bar Harbor, Me.) were housed 5/cage upon arrival, at which time they were 7-8 weeks of age. Animals acclimated to the housing facility under standard laboratory conditions for a period of at least one week before testing (lights on at 6:00 AM). […] Fifteen minutes after the second injection, animals were individually placed into novel cages in which a layer of Aspen Pine bedding on which two parallel rows of 10 marbles each (i.e. twenty total) were placed. After 30 minutes had elapsed, the mice were removed from their test cages and returned to their home cages. The number of fully visible marbles (less than ⅔ covered with bedding) were counted and subtracted from 20 to arrive at the number of marbles buried.

For series [1] the following is noted: cited from earlier work.
The next series has as its system NMRI/BOM mice. Briefly: Mouse forced swim test. In kind it is in vivo. As to conditions: for ED50: SRI alone, mouse forced swim test; for ED50, SRI + 5-HTP (25 mg/kg): SRI in combination with 5-HTP 25 mg/kg SC. The text has this: Male NMRI/BOM mice (18-25 g; Bomholtgaard, Denmark) were used. The mice were housed in plastic cages (35×30×12 cm), 10 in each and habituated to the animal facilities for at least a week before test. […] The animals had free access to commercial food pellets and tap water before test.
A mouse that is forced to swim in a spatially constrained container will exert a characteristic immobile posture. Pretreatment with an antidepressant will counteract this effect. […] Briefly, a fully automated test system with 6 swim units (2000 ml glass jars filled with 1200 ml soiled water (23-25° C.) in which a mouse had been placed previously) was used. The assessment of immobility was performed by image analysis.
Thirty minutes after drug or vehicle treatment the mice were treated with 5-HTP and 20 min later the mice were placed into the glass jar and left in the water for a total of 6 min. The accumulated duration of immobility was measured during the last 3 min. A total of 9-18 mice were tested per dose.

A short description of series [2]: Mouse plasma levels of 5-HTP. The following applies: mouse forced swim test with escitalopram versus human clinical efficacy. In kind it is in vivo. On the procedure:
For this indication, typical doses of 100-200 mg of 5-HTP result in plasma levels of 50-100 ng/ml (Gijsman, H. J., et al., J Clin Psychopharmacol. 2002 April, 22(2):183-9).

The conditions of series [3]: typical doses of 100-200 mg 5-HTP; cited from earlier work.
Series [4] has as its system extra-cellular 5-HT in frontal cortex. In words: Rat microdialysis, extracellular 5-HT in frontal cortex of freely moving rats. In kind it is in vivo. As to conditions: escitalopram 0.5 mg/kg s.c. versus fluoxetine 10 mg/kg s.c.; 5-HTP 25 mg/kg s.c. 60 min later. As to the method:
FIG. 1. […] Microdialysis in freely moving rats was performed as described in detail by Mark, […]. and Sanchez, C. […] Briefly, male Sprague-Dawley rats were prepared for microdialysis by surgically implanting intracerebral guide cannulas. A microdialysis probe was inserted through the guide cannula. Perfusion of the microdialysis probe with filtered Ringer solution (146 mM NaCl, 3 mM KCl, 1 mM MgCl2, 1.2 mM CaCl2) was done before the insertion of the probe and continued for the duration of the experiments at a constant flow of 1 μl/minute into the frontal cortex.

In another series the test system is rat. As to conditions: cited from earlier work.
The subject of another series is mouse. As to conditions: co-administration with L; cited from earlier work.
[5] abbreviates: in combination with escitalopram at a dose corresponding to a clinically effective concentration.

For `NC(Cc1c[nH]c2ccc(O)cc12)C(=O)O` (centres unmarked) [5-HTP, 2-amino-3-(5-hydroxy-1H-indol-3-yl)-propanoic acid], the “marble burying, 5-HTP alone” value in the series on BALB/cByJ mice (5-HTP 2.5 mg/kg) is “no behavioral effect”. The mouse plasma level in series [1] (5-HTP 25 mg/kg) is 17 ng/mL. Also, the mouse plasma level in series [1] (5-HTP 50 mg/kg) is 41 ng/mL. Moreover, the “potentiation of the response to escitalopram” value with NMRI/BOM mice (5-HTP 10, 15 and 50 mg/kg co-administered with escitalopram 0.5 mg/kg) is listed as “significantly potentiates”. The “effect of 5-HTP alone” value with NMRI/BOM mice (5-HTP 25 and 50 mg/kg without SRI) was “not by themselves effective”. In addition, in the series with NMRI/BOM mice (setting [5]), the “5-HTP dose at which maximum potentiation effect was achieved” value is 50 mg/kg and the “minimal effective dose of 5-HTP” value is on record as 10 mg/kg. The “factor by which potentiating plasma levels in mouse are lower than those required for clinical efficacy in humans” value in series [2] was “at least 3 times”. Moreover, in series [3], the “plasma levels in humans” value was 50 to 100 ng/mL.

In general, ED50 refers to the dose that gives a 50% effect, or the effect in half of the subjects. A high value points to a need for a large dose. In the case of `CN(C)CCC[C@@]1(c2ccc(F)cc2)OCc2cc(C#N)ccc21` [Escitalopram, S-(+)-1-[3-(dimethylamino)propyl]-1-(p-fluorophenyl)-5-phthalancarbonitrileoxalate], in the series with BALB/cByJ mice (0.25 mg/kg IP), the “marble burying, escitalopram without 5-HTP” value was “inactive”. Also, the “marble burying, escitalopram with 5-HTP” value in the series on BALB/cByJ mice (escitalopram 0.0625-0.25 mg/kg plus 5-HTP 2.5 mg/kg) was “significant reduction in marble burying”. For the same molecule, the “5-HTP potentiation effect measured as increase of extra-cellular 5-HT in the frontal cortex” value in series [4] is on record as “dramatically higher”. Moreover, in the series on NMRI/BOM mice, the ED50 amounted to 12 mg/kg and the “ED50, SRI + 5-HTP (25 mg/kg)” value came to 0.42 mg/kg. For the same molecule, the “anxiolytic response to co-treatment with L, 5-HTP” value in the series on rat is listed as “markedly enhanced”.

Consider `CNCCC(Oc1ccc(C(F)(F)F)cc1)c1ccccc1` (centres unmarked) [Fluoxetine], for which, in the series with NMRI/BOM mice, the ED50 is > 8.9 mg/kg and the “ED50, SRI + 5-HTP (25 mg/kg)” value is on record as 5.4 mg/kg.

For `Fc1ccc([C@@H]2CCNC[C@H]2COc2ccc3c(c2)OCO3)cc1` [Paroxetine, (3S,4R)-3-((1,3-benzodioxol-5-yloxy)methyl)-4-(4-fluorophenyl)-piperidine], in the series with NMRI/BOM mice, the 50% effective dose (ED50) came to 6.5 mg/kg and the “ED50, SRI + 5-HTP (25 mg/kg)” value was determined as 0.64 mg/kg. For the same molecule, the “antiaggressive effect with a subeffective dose of L, 5-HTP” value in the series with mouse is on record as “greatly potentiated”.

Turning to `CN(C)CCC[C@]1(c2ccc(F)cc2)OCc2cc(C#N)ccc21` [R-citalopram], the “anxiolytic response to co-treatment with L, 5-HTP” value in the series on rat is reported as “significant increase of ultrasonic vocalization”.

Turning to `COc1ccc(C(CN(C)C)C2(O)CCCCC2)cc1` (centres unmarked) [Venlafaxine], in the series with NMRI/BOM mice, the ED50 was > 10 mg/kg and the “ED50, SRI + 5-HTP (25 mg/kg)” value is on record as 3.9 mg/kg.
